For data set [1] the following is noted: cited from earlier work.
The subject of data set [2] is PK03 cells. Kind of data set: Colony formation assay in PK03 cells. To be noted: Mus musculus, read-out: IC50 dose, PK03 cell growth.
A further data set in a line: in vivo. The note with it: male, Swiss Webster, mouse, po, 1 mg/kg.
In another data set the test system is phosphorylation of c-RAF. Briefly: Western blot of phosphorylated c-RAF in PK03 cells. The class given is cell-based, mouse. To be noted: PK03 cells, 3, 10 or 30μM, 24 hours.
The next data set relates to PK03 tumors. Briefly: Histopathology and immunohistochemistry. The note with it: 10mg/kg; for number of MPO-labeled neutrophils/macrophages per high power field: 40X objective lens, P< 0.05 vs control; for tumor morphology vs PK03 control tumors: histopathology.
Data set [3] concerns sEH. Kind of data set: Plasma oxylipin metabolic profile by LC-MS/MS in mice implanted with PK03 cells. Type of data set: in vivo.
Data set [4] concerns phosphorylation of MEK1/2 and ERK1/2. Kind of data set: Western blot of phosphorylated MEK1/2 and ERK1/2 in PK03 cells. The class given is cell-based, mouse. The note with it: PK03 cells, 3, 10 or 30μM, 24 hours.
Data set [5] deals with T1, sEH (Homo sapiens, UniProt P34913).
T1 sequence (P34913 1-555): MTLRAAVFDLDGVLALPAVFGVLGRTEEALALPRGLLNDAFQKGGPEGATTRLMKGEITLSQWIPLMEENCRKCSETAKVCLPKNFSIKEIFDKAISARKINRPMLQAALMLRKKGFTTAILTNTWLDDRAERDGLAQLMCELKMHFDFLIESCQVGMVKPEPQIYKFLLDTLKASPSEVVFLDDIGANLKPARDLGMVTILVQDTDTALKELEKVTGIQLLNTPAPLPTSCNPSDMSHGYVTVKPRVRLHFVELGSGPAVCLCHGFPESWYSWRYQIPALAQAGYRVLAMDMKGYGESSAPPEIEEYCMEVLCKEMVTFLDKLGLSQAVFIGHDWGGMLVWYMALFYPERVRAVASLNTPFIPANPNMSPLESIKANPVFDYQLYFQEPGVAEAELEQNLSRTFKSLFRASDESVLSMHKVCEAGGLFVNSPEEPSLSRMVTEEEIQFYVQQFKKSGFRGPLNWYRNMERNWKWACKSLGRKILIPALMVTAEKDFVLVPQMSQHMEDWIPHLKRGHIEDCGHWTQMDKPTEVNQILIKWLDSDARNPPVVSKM
Kind of data set: sEH enzyme assay. The note with it: read-out: sEH IC50. Type of data set: biochemical.

In another data set the test system is phosphorylated ERK1/2. Kind of data set: Immunohistochemical staining of phosphorylated ERK1/2 in PK03 tumors. To be noted: 10mg/kg, n = 3 mice/group, vs PK03 control.
A further data set is described as follows: Toxicity in mice. The note with it: 35 days treatment. Type of data set: in vivo.
Data set [6] deals with PK03 cells. To be noted: 10mg/kg body weight in drinking water, end of 5 weeks, vs PK03 control.

As for `CNC(=O)c1cc(Oc2ccc(NC(=O)Nc3ccc(Cl)c(C(F)(F)F)c3)cc2)ccn1` [Sorafenib, reference compound], the “clinically achievable plasma concentration” value in data set [1] is 10 µM. Besides, in the data set on PK03 cells [2], the IC50 was determined as 9 µM. For the same compound, in the data set “in vivo”, the Tmax was 2 h and the half-life is 1.5 ± 0.5 h. The “inhibition of phosphorylation of c-RAF” value with phosphorylation of c-RAF is “but not by sorafenib or t-AUCB”. Also, in the data set on PK03 tumors, the “number of MPO-labeled neutrophils/macrophages per high power field” value is 15.1 ± 9.8; the “tumor morphology vs PK03 control tumors” value is “more glandular differentiation with lumen formation and less inflammatory cells reaction”. In addition, the “effect on cyclooxygenase and lipoxygenase mediated metabolites (prostaglandins, thromboxane, leukotrienes, HETE)” value with sEH [3] is given as “no significant difference”. In addition, the “inhibition of phosphorylation of MEK1/2 and ERK1/2” value in data set [4] is given as “significantly inhibited”.

For `CNC(=O)c1cc(O[C@H]2CC[C@@H](NC(=O)Nc3ccc(Cl)c(C(F)(F)F)c3)CC2)ccn1` [c-CUPM], at sEH [5], the IC50 was determined as 0.0005 µM.

As to `CNC(=O)c1cc(O[C@H]2CC[C@H](NC(=O)Nc3ccc(Cl)c(C(F)(F)F)c3)CC2)ccn1` [t-CUPM, trans-4-{4-[3-(4-chloro-3-trifluoromethyl-phenyl)-ureido]-cyclohexyloxy}-pyridine-2-carboxylic acid methylamide], in the data set with phosphorylated ERK1/2, the “staining intensity of phosphorylated ERK1/2” value was determined as 60 ± 19.2. Besides, the half-maximal inhibitory concentration (IC50) in the data set on PK03 cells [2] was determined as 8.1 µM. Further, the “toxic effect grossly and histopathologically” value in the data set “Toxicity in mice” was “did not produce any toxic effect”. The compound further gave a half-life in the data set “in vivo” of 2.2 ± 1.6 h. For the same compound, in the data set with phosphorylation of c-RAF, the “inhibition of phosphorylation of c-RAF” value was “significantly inhibited”. For the same compound, in the data set with PK03 tumors, the “number of MPO-labeled neutrophils/macrophages per high power field” value was 12.4 ± 6.1; the “tumor morphology vs PK03 control tumors” value is “more glandular differentiation with lumen formation and less inflammatory cells reaction”. For the same compound, in the data set with PK03 cells [6], the tumor size was 275.9 ± 68.9 mm^3 and the tumor weight is given as 0.25 ± 0.06 g. Also, the “effect on cyclooxygenase and lipoxygenase mediated metabolites (prostaglandins, thromboxane, leukotrienes, HETE)” value in the data set on sEH [3] was “no significant difference”. In data set [4], the “inhibition of phosphorylation of MEK1/2 and ERK1/2” value is reported as “significantly inhibited”.
